Measurements: US8722849B2, “Polypeptides” (Novo Nordisk A/S, priority 2011, dated 2014)
Values after ≈ are worked out from the molar mass of the structure shown. Read-outs that look alike come from different tables or passages of the source. Starred links: 1 amine or outer side, 2 acyl side, 3 side chain; linkers in the order of their positions; H or OH if unused. Positions of bridges follow the written chain, without caps; N, C: chain ends. Residues, ends and D or L forms follow the SMILES beside them. *: point of attachment. C20 diacid = O=C(O)CCCCCCCCCCCCCCCCCCC(=O)*; γGlu = O=C(O)[C@H](CCC(=O)[*:2])N[*:1]

How the values were obtained:
[1] = Assay (IV) determination of solubility; assay type: physicochemical
In short: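 Stock ~500 nmol/ml in water; 1:1 with 100 mM buffer, pH 3.0–8.0 (glycylglycine ≤5.0, bistrispropane ≥6.0); 18 h RT; spin; HPLC quantitation of soluble polypeptide.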

[2] = molecular target: T1, human calcitonin receptor (Homo sapiens, UniProt P30988); assay: Assay (II)a functional CRE-luciferase assay, human calcitonin receptor; assay type: cell-based; conditions: Table 7; human calcitonin (CTa) receptor
T1 construct: expressed in transfected cells; host or cells: BHK570
T1 sequence (P30988 25-474): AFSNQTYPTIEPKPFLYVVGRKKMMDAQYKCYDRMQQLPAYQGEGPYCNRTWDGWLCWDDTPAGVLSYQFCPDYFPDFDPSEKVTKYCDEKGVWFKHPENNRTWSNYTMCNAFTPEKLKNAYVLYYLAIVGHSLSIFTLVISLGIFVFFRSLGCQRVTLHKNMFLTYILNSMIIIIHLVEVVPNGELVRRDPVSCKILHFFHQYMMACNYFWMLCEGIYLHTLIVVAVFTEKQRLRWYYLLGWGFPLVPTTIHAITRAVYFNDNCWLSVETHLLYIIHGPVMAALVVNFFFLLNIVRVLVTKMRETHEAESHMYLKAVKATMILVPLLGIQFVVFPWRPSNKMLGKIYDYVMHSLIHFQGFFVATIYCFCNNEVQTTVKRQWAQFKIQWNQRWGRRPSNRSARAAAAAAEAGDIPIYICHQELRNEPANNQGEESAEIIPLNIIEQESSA

[3] = molecular target: T2, human amylin receptor (amylin 3(a) receptor: human calcitonin receptor + RAMP-3) (Homo sapiens, UniProt O60896+P30988); assay: Assay (II)a functional CRE-luciferase assay, human amylin receptor; assay type: cell-based; conditions: Table 2; BHK amylin 3(a)-receptor/CRE-luc cells
T2 construct: expressed in transfected cells; host or cells: BHK570
T2 sequence (P30988 25-474): T1 sequence (P30988 25-474)
T2 sequence (O60896 24-148 partner): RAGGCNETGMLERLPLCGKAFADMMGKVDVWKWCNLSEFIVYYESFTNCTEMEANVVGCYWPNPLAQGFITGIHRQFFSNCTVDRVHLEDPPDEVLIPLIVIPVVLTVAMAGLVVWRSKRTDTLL

[4] = Assay (III) ThT fibrillation assay for physical stability; assay type: physicochemical
In short: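 Freshly prepared formulations, pH-adjusted, with 1 μM ThT; four or eight replicates incubated at 37 °C under 960 rpm orbital shaking. Fluorescence (ex 444/em 485 nm) read every 20 min; […]. Peptide concentration measured by RP-HPLC before and after the run.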

[5] = bistrispropane buffer, pH 6, pH 6.0, read-out: Solubility pH 6.0
[6] = bistrispropane buffer, pH 6.5, pH 6.5, read-out: Solubility pH 6.5
[7] = bistrispropane buffer, pH 7, pH 7.0, read-out: Solubility pH 7.0
[8] = bistrispropane buffer, pH 7.5, pH 7.5, read-out: Solubility pH 7.5
[9] = bistrispropane buffer, pH 8, pH 8.0, read-out: Solubility pH 8.0
[10] = glycylglycine buffer, pH 3, pH 3.0, read-out: Solubility pH 3.0
[11] = glycylglycine buffer, pH 4, pH 4.0, 18 hours at room temperature, Table 2, read-out: Solubility pH 4.0
[12] = glycylglycine buffer, pH 4, pH 4.0, read-out: Solubility pH 4.0
[13] = glycylglycine buffer, pH 5, pH 5.0, read-out: Solubility pH 5.0

Compound	solubility at 18 h [1, 5] [µM]	solubility at 18 h [1, 6] [µM]	solubility at 18 h [1, 7] [µM]	solubility at 18 h [1, 8] [µM]	solubility at 18 h [1, 9] [µM]	solubility at 18 h [1, 10] [µM]	solubility at 18 h [1, 11] [µM]	solubility at 18 h [1, 12] [µM]	solubility at 18 h [1, 13] [µM]	EC50 [2] [nM]	EC50 [3] [nM]	ThT pH 4.0 lag time ([4]; ThT fibrillation assay) [h]	ThT pH 4.0 lag time (h) ([4]; ThT fibrillation assay)	solubility at 18 h ([1]; bistrispropane buffer, pH 7, pH 7.0, 18 hours at room temperature, Table 3, read-out: Solubility pH 7.0) [µM]	solubility at 18 h ([1]; bistrispropane buffer, pH 7, pH 7.0, Table 8, read-out: Solubility pH 7.0) [µM]	solubility at 18 h ([1]; bistrispropane buffer, pH 7, pH 7.0, Table 9, read-out: Solubility pH 7.0) [µM]	solubility at 18 h ([1]; bistrispropane buffer, pH 7.5, pH 7.5, Table 9, read-out: Solubility pH 7.5) [µM]	ThT pH 4.0 lag time ([4]; Table 8) [h]	ThT pH 4.0 lag time ([4]; Table 9) [h]
CC[C@H](C)[C@H](NC(=O)[C@@H]1CCCN1C(=O)CNC(=O)[C@H](Cc1ccccc1)NC(=O)[C@H](CC(N)=O)NC(=O)[C@H](CO)NC(=O)[C@H](CO)NC(=O)[C@H](CO)NC(=O)[C@H](Cc1c[nH]cn1)NC(=O)[C@H](CCCNC(=N)N)NC(=O)[C@H](CC(C)C)NC(=O)[C@H](Cc1ccccc1)NC(=O)[C@H](CCC(=O)O)NC(=O)[C@H](C)NC(=O)[C@H](CC(C)C)NC(=O)[C@H](CCCNC(=N)N)NC(=O)[C@H](CCC(N)=O)NC(=O)[C@@H](NC(=O)[C@H](C)NC(=O)[C@@H]1CSSC[C@H](NC(=O)[C@H](Cc2c[nH]cn2)NC(=O)CC[C@H](NC(=O)CCCCCCCCCCCCCCCCCCC(=O)O)C(=O)O)C(=O)N[C@@H](CC(N)=O)C(=O)N[C@@H]([C@@H](C)O)C(=O)N[C@@H](C)C(=O)N[C@@H]([C@@H](C)O)C(=O)N1)[C@@H](C)O)C(=O)N[C@@H](CC(C)C)C(=O)N[C@@H](CO)C(=O)N[C@@H](CO)C(=O)N[C@H](C(=O)N[C@@H](CC(N)=O)C(=O)N[C@H](C(=O)NCC(=O)N[C@@H](CO)C(=O)N[C@@H](Cc1c[nH]cn1)C(=O)N[C@H](C(=O)N[C@@H](Cc1ccc(O)cc1)C(N)=O)[C@@H](C)O)C(C)C)[C@@H](C)O [Example 111, N-alpha-[(S)-4-Carboxy-4-(19-carboxynonadecanoylamino)butyryl]-[His1,Glu14,Arg17,Ser21,Ser28,Ser29,His35]-pramlintide] ({C20 diacid-γGlu}-HCNTATCATQRLAEFLRHSSSNFGPILSSTNVGSHTY-NH2; disulfide 2-7 (inferred))	2 (≈ 8.92 µg/mL)	1 (≈ 4.46 µg/mL)	1 (≈ 4.46 µg/mL)	1 (≈ 4.46 µg/mL)	3 (≈ 13.4 µg/mL)	> 200	> 200	> 200	> 200	0.57	0.394	>45	>45	–	–	–	–	–	–
CC[C@H](C)[C@H](NC(=O)[C@@H]1CCCN1C(=O)CNC(=O)[C@H](Cc1ccccc1)NC(=O)[C@H](CC(N)=O)NC(=O)[C@H](CC(N)=O)NC(=O)[C@H](CO)NC(=O)[C@H](CO)NC(=O)[C@H](Cc1c[nH]cn1)NC(=O)[C@H](Cc1c[nH]cn1)NC(=O)[C@H](CC(C)C)NC(=O)[C@H](Cc1ccccc1)NC(=O)[C@H](CCC(=O)O)NC(=O)[C@H](C)NC(=O)[C@H](CC(C)C)NC(=O)[C@H](CCCNC(=N)N)NC(=O)[C@H](CCC(N)=O)NC(=O)[C@@H](NC(=O)[C@H](C)NC(=O)[C@@H]1CSSC[C@H](NC(=O)[C@H](CCCCN)NC(=O)CC[C@H](NC(=O)CCCCCCCCCCCCCCCCCCC(=O)O)C(=O)O)C(=O)N[C@@H](CC(N)=O)C(=O)N[C@@H]([C@@H](C)O)C(=O)N[C@@H](C)C(=O)N[C@@H]([C@@H](C)O)C(=O)N1)[C@@H](C)O)C(=O)N[C@@H](CC(C)C)C(=O)N1CCC[C@H]1C(=O)N1CCC[C@H]1C(=O)N[C@H](C(=O)N[C@@H](CC(N)=O)C(=O)N[C@H](C(=O)NCC(=O)N[C@@H](CO)C(=O)N[C@@H](CCCNC(=N)N)C(=O)N[C@H](C(=O)N[C@@H](Cc1ccc(O)cc1)C(N)=O)[C@@H](C)O)C(C)C)[C@@H](C)O [Example 112, N-alpha-[(S)-4-Carboxy-4-(19-carboxynonadecanoylamino)butyryl]-[Glu14,His17,Arg35]-pramlintide] ({C20 diacid-γGlu}-KCNTATCATQRLAEFLHHSSNNFGPILPPTNVGSRTY-NH2; disulfide 2-7 (inferred); C-terminus assumed)	> 200	161 (≈ 724 µg/mL)	23 (≈ 103 µg/mL)	4 (≈ 18 µg/mL)	2 (≈ 9 µg/mL)	> 200	> 200	> 200	> 200	0.104	0.098	>45	>45	–	–	–	–	–	–
CC[C@H](C)[C@H](NC(=O)[C@@H]1CCCN1C(=O)CNC(=O)[C@H](Cc1ccccc1)NC(=O)[C@H](CC(N)=O)NC(=O)[C@H](CC(N)=O)NC(=O)[C@H](CO)NC(=O)[C@H](CO)NC(=O)[C@H](Cc1c[nH]cn1)NC(=O)[C@H](Cc1c[nH]cn1)NC(=O)[C@H](CC(C)C)NC(=O)[C@H](Cc1ccccc1)NC(=O)[C@H](CCC(=O)O)NC(=O)[C@H](C)NC(=O)[C@H](CC(C)C)NC(=O)[C@H](CCCNC(=N)N)NC(=O)[C@H](CCC(N)=O)NC(=O)[C@@H](NC(=O)[C@H](C)NC(=O)[C@@H]1CSSC[C@H](NC(=O)[C@H](CCCCN)NC(=O)CC[C@H](NC(=O)CCCCCCCCCCCCCCCCCCC(=O)O)C(=O)O)C(=O)N[C@@H](CC(N)=O)C(=O)N[C@@H]([C@@H](C)O)C(=O)N[C@@H](C)C(=O)N[C@@H]([C@@H](C)O)C(=O)N1)[C@@H](C)O)C(=O)N[C@@H](CC(C)C)C(=O)N1CCC[C@H]1C(=O)N1CCC[C@H]1C(=O)N[C@H](C(=O)N[C@@H](CC(N)=O)C(=O)N[C@H](C(=O)NCC(=O)N[C@@H](CO)C(=O)N[C@@H](CCCCN)C(=O)N[C@H](C(=O)N[C@@H](Cc1ccc(O)cc1)C(N)=O)[C@@H](C)O)C(C)C)[C@@H](C)O [Example 113, N-alpha-[(S)-4-Carboxy-4-(19-carboxynonadecanoylamino)butyryl]-[Glu14,His17,Lys35]-pramlintide] ({C20 diacid-γGlu}-KCNTATCATQRLAEFLHHSSNNFGPILPPTNVGSKTY-NH2; disulfide 2-7 (inferred))	> 200	> 200	> 200	188 (≈ 840 µg/mL)	124 (≈ 554 µg/mL)	> 200	> 200	> 200	> 200	0.13	0.134	>45	>45	> 200	> 200	> 200	188 (≈ 840 µg/mL)	>45	>45
CC[C@H](C)[C@H](NC(=O)[C@@H]1CCCN1C(=O)CNC(=O)[C@H](Cc1ccccc1)NC(=O)[C@H](CC(N)=O)NC(=O)[C@H](CC(N)=O)NC(=O)[C@H](CO)NC(=O)[C@H](CO)NC(=O)[C@H](Cc1c[nH]cn1)NC(=O)[C@H](Cc1c[nH]cn1)NC(=O)[C@H](CC(C)C)NC(=O)[C@H](Cc1ccccc1)NC(=O)[C@H](CCC(=O)O)NC(=O)[C@H](C)NC(=O)[C@H](CC(C)C)NC(=O)[C@H](CCCNC(=N)N)NC(=O)[C@H](CCC(N)=O)NC(=O)[C@@H](NC(=O)[C@H](C)NC(=O)[C@@H]1CSSC[C@H](NC(=O)[C@H](CCCCN)NC(=O)CC[C@H](NC(=O)CCCCCCCCCCCCCCCCCCC(=O)O)C(=O)O)C(=O)N[C@@H](CC(N)=O)C(=O)N[C@@H]([C@@H](C)O)C(=O)N[C@@H](C)C(=O)N[C@@H]([C@@H](C)O)C(=O)N1)[C@@H](C)O)C(=O)N[C@@H](CC(C)C)C(=O)N1CCC[C@H]1C(=O)N1CCC[C@H]1C(=O)N[C@H](C(=O)N[C@@H](CC(N)=O)C(=O)N[C@H](C(=O)NCC(=O)N[C@@H](CO)C(=O)N[C@@H](CC(N)=O)C(=O)N[C@@H](Cc1c[nH]cn1)C(=O)N[C@@H](Cc1ccc(O)cc1)C(N)=O)C(C)C)[C@@H](C)O [Example 114, N-alpha-[(S)-4-Carboxy-4-(19-carboxynonadecanoylamino)butyryl]-[Glu14,His17,His36]-pramlintide] ({C20 diacid-γGlu}-KCNTATCATQRLAEFLHHSSNNFGPILPPTNVGSNHY-NH2; disulfide 2-7 (inferred))	> 200	73 (≈ 328 µg/mL)	14 (≈ 62.9 µg/mL)	31 (≈ 139 µg/mL)	79 (≈ 355 µg/mL)	> 200	> 200	> 200	> 200	0.113	0.382	>45	>45	–	–	–	–	–	–
